Test results reported in US11926625B2, “HPK1 antagonists and uses thereof” (Nimbus Saturn, Inc., priority 2021, dated 2024).

Biological target: T1, HPK1 (Homo sapiens, UniProt Q92918)
T1 construct: purchased Invitrogen
Assay: HPK1 biochemical enzyme assay (microfluidic mobility shift, Caliper)
Settings: 1.5 nM HPK1 (Invitrogen), 1 mM ATP, 30 min preincubation, 60 min at RT, top concentration 3 μM; read-out: HPK1 1000UMATP caliper IC50
Description: Example 20. HPK1 Biochemical Enzyme Assay
HPK1 biochemical enzyme assay: HPK1 enzyme inhibition was measured using a microfluidic mobility shift assay. Reactions were performed in a 384-well plate, containing 1.5 nM HPK1 (Invitrogen), in assay buffer (Cama Biosciences; pH 7.4). Test compounds were titrated in ten point curves (top final assay concentration 3 μM), and preincubated with enzyme/substrate mix for 30 min prior to initiation of the reaction by addition of ATP (1 mM final concentration) and substrate (1 μM final concentration; Carna Biosciences) diluted in assay buffer supplemented by MgCl2 (final assay concentration of 5 mM). Following 60 min incubation at RT, the reaction was terminated by addition of 60 μl/well termination buffer (Carna Biosciences) and signal determination using a Caliper EZ Reader (Perkin Elmer, UK).

T1 sequence (Q92918 whole entry): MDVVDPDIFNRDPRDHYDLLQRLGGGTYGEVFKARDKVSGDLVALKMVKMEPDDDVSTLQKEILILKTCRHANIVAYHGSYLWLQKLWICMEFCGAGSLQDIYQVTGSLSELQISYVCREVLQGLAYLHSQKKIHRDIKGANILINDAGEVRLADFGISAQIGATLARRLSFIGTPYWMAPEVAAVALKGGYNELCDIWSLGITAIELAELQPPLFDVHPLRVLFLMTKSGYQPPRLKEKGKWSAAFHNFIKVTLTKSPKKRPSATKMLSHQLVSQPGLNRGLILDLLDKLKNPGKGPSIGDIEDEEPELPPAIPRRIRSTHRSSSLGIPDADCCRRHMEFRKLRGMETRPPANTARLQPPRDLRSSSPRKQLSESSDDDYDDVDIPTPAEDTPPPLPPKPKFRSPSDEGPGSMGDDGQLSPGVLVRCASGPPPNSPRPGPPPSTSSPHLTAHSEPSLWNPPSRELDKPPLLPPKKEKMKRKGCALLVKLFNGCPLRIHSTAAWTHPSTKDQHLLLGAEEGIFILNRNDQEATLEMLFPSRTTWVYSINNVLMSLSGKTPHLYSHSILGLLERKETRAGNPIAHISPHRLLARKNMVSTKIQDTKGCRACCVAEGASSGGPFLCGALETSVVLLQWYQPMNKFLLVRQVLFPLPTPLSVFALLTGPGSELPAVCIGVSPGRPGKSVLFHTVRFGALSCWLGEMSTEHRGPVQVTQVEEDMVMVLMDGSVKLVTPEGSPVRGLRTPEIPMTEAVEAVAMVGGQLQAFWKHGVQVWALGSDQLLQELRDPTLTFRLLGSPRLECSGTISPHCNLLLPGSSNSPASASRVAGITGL

Structure (SMILES) | IC50
O=C1NCc2c(C3CCOCC3)ncc(Nc3ccc(N4CCNCC4)cn3)c21 [Compound I-2, 7-[(5-piperazin-1-yl-2-pyridyl)amino]-4-tetrahydropyran-4-yl-2,3-dihydropyrrolo [3,4-c]pyridin-1-one] | 1 to 5 µM
CN1CCN(c2ccc(Nc3ccc(-c4ccnc(OCC5CCC5)c4)c4c3C(=O)NC4)nc2)CC1 [Compound I-47, 4-[2-(cyclobutylmethoxy)-4-pyridyl]-7-[[5-(4-methylpiperazin-1-yl)-2-pyridyl]amino] isoindolin-1-one] | < 1 µM
CN1CCN(c2ccc(Nc3ccc(-c4ccncc4)c4c3C(=O)NC4)nc2)CC1 [Compound I-25, 7-[[5-(4-methylpiperazin-1-yl)-2-pyridyl]amino]-4-(4-pyridyl) isoindolin-1-one] | < 1 µM
CN1CCN(c2ccc(Nc3ccc(-c4ccccn4)c4c3C(=O)NC4)nc2)CC1 [Compound I-31, 7-[[5-(4-methylpiperazin-1-yl)-2-pyridyl]amino]-4-(2-pyridyl) isoindolin-1-one] | < 1 µM
COc1ccc(-c2ncc(Nc3ccc(N4CCNCC4)cn3)c3c2CNC3=O)cc1 [Compound I-6, 4-(4-methoxyphenyl)-7-[(5-piperazin-1-yl-2-pyridyl)amino]-2,3-dihydropyrrolo [3,4-c]pyridin-1-one] | 1 to 5 µM
CN1CCN(c2ccc(Nc3ccc(-c4ccnc(C(C)(C)C#N)c4)c4c3C(=O)NC4)nc2)CC1 [Compound I-35, 2-methyl-2-[4-[7-[[5-(4-methylpiperazin-1-yl)-2-pyridyl]amino]-1-oxo-isoindolin-4-yl]-2-pyridyl] propanenitrile] | < 1 µM
O=C1NCc2c(-c3cccnc3)ncc(Nc3ccc(N4CCNCC4)cn3)c21 [Compound I-7, 7-[(5-piperazin-1-yl-2-pyridyl)amino]-4-(3-pyridyl)-2,3-dihydropyrrolo [3,4-c]pyridin-1-one] | 1 to 5 µM
CN1CCN(c2ccc(Nc3ccc(-c4ccnc(C5CCOCC5)n4)c4c3C(=O)NC4)nc2)CC1 [Compound I-62, 7-((5-(4-methylpiperazin-1-yl)pyridin-2-yl)amino)-4-(2-(tetrahydro-2H-pyran-4-yl)pyrimidin-4-yl)isoindolin-1-one] | 1 to 5 µM
CN1CCN(c2ccc(Nc3ccc(-c4ccnc(C#CC5CCCCC5)c4)c4c3C(=O)NC4)nc2)CC1 [Compound I-63, 4-(2-(cyclohexylethynyl)pyridin-4-yl)-7-((5-(4-methylpiperazin-1-yl)pyridin-2-yl)amino) isoindolin-1-one] | < 1 µM
Cn1cncc1-c1ccc(Nc2ccc(N3CCNCC3)cn2)c2c1CNC2=O [Compound I-71, 4-(1-methyl-1H-imidazol-5-yl)-7-((5-(piperazin-1-yl)pyridin-2-yl)amino) isoindolin-1-one] | < 1 µM
CN1CCN(c2ccc(Nc3ccc(-c4ccnc(N5CC6CCC(C5)O6)n4)c4c3C(=O)NC4)nc2)CC1 [Compound I-82, 4-(2-(8-oxa-3-azabicyclo [3.2.1]octan-3-yl)pyrimidin-4-yl)-7-((5-(4-methylpiperazin-1-yl)pyridin-2-yl)amino) isoindolin-1-one] | 1 to 5 µM
CN1CCN(c2ccc(Nc3ccc(-c4ccnc(N(C)C)c4)c4c3C(=O)NC4)nc2)CC1 [Compound I-50] | < 1 µM
CC(=O)N1CCN(c2cc(-c3ccc(Nc4ccc(N5CCN(C)CC5)cn4)c4c3CNC4=O)ccn2)CC1 [Compound I-43, 4-[2-(4-acetylpiperazin-1-yl)-4-pyridyl]-7-[[5-(4-methylpiperazin-1-yl)-2-pyridyl]amino] isoindolin-1-one] | 1 to 5 µM
O=C1NCc2c(-c3ccncc3)ncc(Nc3ccc(N4CCNCC4)cn3)c21 [Compound I-1, 7-[(5-piperazin-1-yl-2-pyridyl)amino]-4-(4-pyridyl)-2,3-dihydropyrrolo [3,4-c]pyridin-1-one] | < 1 µM
CN1CCN(c2ccc(Nc3ccc(-c4ccc(F)c(C5CCOCC5)c4)c4c3C(=O)NC4)nc2)CC1 [Compound I-87, 4-(4-fluoro-3-(tetrahydro-2H-pyran-4-yl)phenyl)-7-((5-(4-methylpiperazin-1-yl)pyridin-2-yl)amino) isoindolin-1-one] | 1 to 5 µM
COc1cccc(-c2ncc(Nc3ccc(N4CCNCC4)cn3)c3c2CNC3=O)c1OC [Compound I-20, 4-(2,3-dimethoxyphenyl)-7-[(5-piperazin-1-yl-2-pyridyl)amino]-2,3-dihydropyrrolo [3,4-c]pyridin-1-one] | 1 to 5 µM
CN1CCN(c2ccc(Nc3ccc(-c4ccnc(N5CCOCC5)c4)c4c3C(=O)NC4)nc2)CC1 [Compound I-32, 7-[[5-(4-methylpiperazin-1-yl)-2-pyridyl]amino]-4-(2-morpholino-4-pyridyl) isoindolin-1-one] | < 1 µM
CN1CCN(c2ccc(Nc3cnc(-c4cncn4C)c4c3C(=O)NC4)nc2)CC1 [Compound I-73, 4-(1-methyl-1H-imidazol-5-yl)-7-((5-(4-methylpiperazin-1-yl)pyridin-2-yl)amino)-2,3-dihydro-1H-pyrrolo[3,4-c]pyridin-1-one] | < 1 µM

Structure (SMILES) | IC50
COc1cccc(-c2ncc(Nc3ccc(N4CCN(C)CC4)cn3)c3c2CNC3=O)c1OC [Compound I-19, 4-(2,3-dimethoxyphenyl)-7-[[5-(4-methylpiperazin-1-yl)-2-pyridyl]amino]-2,3-dihydropyrrolo [3,4-c]pyridin-1-one] | 1 to 5 µM
O=C1NCc2c(-c3cnco3)ncc(Nc3ccc(N4CCNCC4)cn3)c21 [Compound I-18, 4-oxazol-5-yl-7-[(5-piperazin-1-yl-2-pyridyl)amino]-2,3-dihydropyrrolo [3,4-c]pyridin-1-one] | 1 to 5 µM
CNc1cc(-c2ncc(Nc3ccc(N4CCN(C)CC4)cn3)c3c2CNC3=O)ccn1 [Compound I-56, 4-(2-(methylamino)pyridin-4-yl)-7-((5-(4-methylpiperazin-1-yl)pyridin-2-yl)amino)-2,3-dihydro-1H-pyrrolo[3,4-c]pyridin-1-one] | < 1 µM
CN1CCN(c2ccc(Nc3ccc(-c4ccnc(N5CCC6(CCOCC6)CC5)c4)c4c3C(=O)NC4)nc2)CC1 [Compound I-33, 7-[[5-(4-methylpiperazin-1-yl)-2-pyridyl]amino]-4-[2-(3-oxa-9-azaspiro[5. 5]undecan-9-yl)-4-pyridyl] isoindolin-1-one] | 1 to 5 µM
CNc1cc(-c2ccc(Nc3ccc(N4CCN(C)CC4)cn3)c3c2CNC3=O)ncn1 [Compound I-48, 4-[6-(methylamino)pyrimidin-4-yl]-7-[[5-(4-methylpiperazin-1-yl)-2-pyridyl]amino] isoindolin-1-one] | < 1 µM
O=C1NCc2c(-c3ncco3)ncc(Nc3ccc(N4CCNCC4)cn3)c21 [Compound I-10, 4-oxazol-2-yl-7-[(5-piperazin-1-yl-2-pyridyl)amino]-2,3-dihydropyrrolo [3,4-c]pyridin-1-one] | 1 to 5 µM
CN1CCN(c2ccc(Nc3ccc(-c4ccncn4)c4c3C(=O)NC4)nc2)CC1 [Compound I-45, 7-[[5-(4-methylpiperazin-1-yl)-2-pyridyl]amino]-4-pyrimidin-4-yl-isoindolin-1-one] | < 1 µM
CN1CCN(c2ccc(Nc3ccc(-c4ccnc(C#CC5CCCO5)c4)c4c3C(=O)NC4)nc2)CC1 (centres unmarked) [Compound I-68] | < 1 µM
O=C1NCc2c(Cc3ccccc3)ccc(Nc3ccc(N4CCNCC4)cn3)c21 [Compound I-83, 4-benzyl-7-((5-(piperazin-1-yl)pyridin-2-yl)amino) isoindolin-1-one] | 1 to 5 µM
O=C1NCc2c(C3CC3)ncc(Nc3ccc(N4CCNCC4)cn3)c21 [Compound I-12, 4-cyclopropyl-7-[(5-piperazin-1-yl-2-pyridyl)amino]-2,3-dihydropyrrolo [3,4-c]pyridin-1-one] | 1 to 5 µM
CCc1cnc(N)nc1-c1ccc(Nc2ccc(N3CCN(C)CC3)cn2)c2c1CNC2=O [Compound I-86, 4-(2-amino-5-ethylpyrimidin-4-yl)-7-((5-(4-methylpiperazin-1-yl)pyridin-2-yl)amino) isoindolin-1-one] | 1 to 5 µM
CN1CCN(c2ccc(Nc3ccc(-c4ccnc(N5CCC6(CCCO6)CC5)c4)c4c3C(=O)NC4)nc2)CC1 [Compound I-38, 7-[[5-(4-methylpiperazin-1-yl)-2-pyridyl]amino]-4-[2-(1-oxa-8-azaspiro[4. 5]decan-8-yl)-4-pyridyl] isoindolin-1-one] | 1 to 5 µM
CC#Cc1cc(-c2ccc(Nc3ccc(N4CCN(C)CC4)cn3)c3c2CNC3=O)ccn1 [Compound I-60, 7-((5-(4-methylpiperazin-1-yl)pyridin-2-yl)amino)-4-(2-(prop-1-yn-1-yl)pyridin-4-yl)isoindolin-1-one] | < 1 µM
CN1CCN(c2ccc(Nc3cnc(-c4ccncc4)c4c3C(=O)NC4)nc2)CC1 [Compound I-15, 7-[[5-(4-methylpiperazin-1-yl)-2-pyridyl]amino]-4-(4-pyridyl)-2,3-dihydropyrrolo [3,4-c]pyridin-1-one] | 1 to 5 µM
CN1CCN(c2ccc(Nc3ccc(-c4ccnc(N5CCC(C#N)CC5)c4)c4c3C(=O)NC4)nc2)CC1 [Compound I-37, 1-[4-[7-[[5-(4-methylpiperazin-1-yl)-2-pyridyl]amino]-1-oxo-isoindolin-4-yl]-2-pyridyl] piperidine-4-carbonitrile] | < 1 µM
CN1CCN(c2ccc(Nc3ccc(-c4ccnc(N5CCC6(CCNC6)CC5)c4)c4c3C(=O)NC4)nc2)CC1 [Compound I-42, 4-[2-(2,8-diazaspiro [4.5]decan-8-yl)-4-pyridyl]-7-[[5-(4-methylpiperazin-1-yl)-2-pyridyl]amino] isoindolin-1-one] | < 1 µM
CN1CCN(c2ccc(Nc3ccc(-c4ccncc4N4CC5CCC(C4)O5)c4c3C(=O)NC4)nc2)CC1 [Compound I-74] | 1 to 5 µM
